In PMC10845205, “Discovery of novel antibacterial agent for the infected wound treatment: all-hydrocarbon stapling optimization of LL-37” (Theranostics, 2024):
In brackets after ≈: the same amount, converted by molar mass. Read-outs that look alike come from different tables or passages of the source. Positions of bridges follow the written chain, without caps; N, C: chain ends. Non-standard residues stand in square brackets, D forms with d. Residues, ends and D or L forms follow the SMILES beside them. R8 = C=CCCCCCC[C@@](C)(N)C(=O)O; S5 = C=CCCC[C@](C)(N)C(=O)O

Assays:
[1] = test system: E. coli
Protocol: (§1) According to the protocol of Clinical & Laboratory Standards Institute, the minimum inhibitory concentration (MIC) of the linear and stapled peptides against a panel of gram-positive and gram-negative bacteria was determined by the broth microdilution method. […]
(§2) Bacterial strains and culture
(§3) Bacterial type stains ATCC 25923 S. aureus, ATCC 12228 S. epidermidis, ATCC […]
(§4) aeruginosa and ATCC 13883 K. pneumoniae were obtained from Shanghai Bioresource Collection Center. The bacterial culture medium was purchased from Oxoid and autoclaved according to the instructions from manufacturer. The isolated strains were cultured in Mueller Hinton II broth and continuously shaken at 140 rpm for 18 hours to the middle of the exponential growth phase at 37 °C with an OD value of 0.4-0.5.
(§5) Bacterial suspensions with an OD value of 0.1, approximately […], were then diluted for further assays.
(§6) The minimal inhibition concentration (MIC) of the linear and stapled peptides was determined using the microbroth dilution method from the Clinical and Laboratory Standards Institute (CLSI)[2, 3]. Bacterial suspensions of 10 6 CFU/mL were prepared in MH-II broth and peptide solutions at varying concentrations were prepared in phosphate buffer saline (PBS). Then 50 μL peptide solution and 50 μL bacterial suspension were mixed in a 96 -well plate. Plates were incubated for 24 hours at 37 °C.
(§7) 10 μL AlamarBlue cell viability reagent (ThermoFisher Scientific, UK) was added to each well, then the plate was re -incubated for a further 2 hours at 37 °C. The MIC was recorded as the minimum concentration of peptides required to completely in hibit bacteria growth. For serum stability assessment, the peptide solutions were pre - incubated with 50% human serum for 4 h before the MIC determination. Experiments were performed in 3 independent measurements. […]

[2] = test system: S. epidermidis
Protocol: as §1, §2, §3, §4, §5, §6, §7

[3] = test system: K. pneumoniae
Protocol: as §1, §2, §3, §4, §5, §6, §7

[4] = test system: S. aureus
Protocol: as §1, §2, §3, §4, §5, §6, §7

[5] = test system: E. faecalis
Protocol: as §1, §2, §3, §4, §5, §6, §7

[6] = test system: P. aeruginosa
Protocol: as §1, §2, §3, §4, §5, §6, §7

[7] = test system: A. baumannii
Protocol: as §1, §2, §3, §4, §5, §6, §7

[8] = Serum stability assay; format: in vitro ADME, human; settings: for metabolised at 1 h, 0.4 mg/mL: human serum in pH 7.4 PBS, 37 °C, RP-HPLC, read-out: fraction hydrolyzed within 1 h; for TD50 (time at which 50% of the peptide is degraded in the presence of serum): human serum, 2 mg/mL peptide in pH 7.4 PBS mixed with serum 1:4, 37 °C, up to 48 h, RP-HPLC UV 220 nm, 3 independent measurements
Text: Maintaining high stability and presenting high compatibility in the complex physiological environment are important criterions for the clinical translation of AMPs. […] The derivatives were mixed with human serum in pH 7.4 PBS, simulating the degradation process of peptides by proteases in vivo. The percentages of intact derivatives were monitored and determined with time according to the PR-HPLC. […]
Serum stability of the linear and stapled peptides was examined by RP -HPLC as previously described. 2 mg/mL peptide solution was prepared in pH 7.4 PBS and incubated with human serum (Gemini, USA) to the final volume ratio of 1:4 at 37 °C.
At various time intervals, 50 μL mixture was added to 50 μL ethanol to terminate the enzymatic hydrolysis. After centrifugation at 10,000 rpm for 10 minutes under 4 °C, […]
the supernatant was collected and analyzed by RP-HPLC, with a UV detector monitored at 220 nm. Record the peak area of the intact peptide and calculate the percentage of remaining peptide based on the integrated area as, Peptide remaining (%) = peak area of remaining peptide/peak area of intact peptide×100%. […]

Compound	MIC E. coli ([1]; 24 h)	MIC S. epidermidis ([2]; 24 h)	MIC K. pneumoniae ([3]; 24 h)	MIC S. aureus ([4]; 24 h)	MIC E. faecalis ([5]; 24 h)	MIC P. aeruginosa ([6]; 24 h)	MIC A. baumannii ([7]; 24 h)	metabolised at 1 h, 0.4 mg/mL [8]	TD50 (time at which 50% of the peptide is degraded in the presence of serum) [8]	MIC E. coli ([1]; CLSI broth microdilution, MH-II broth, 24 h 37 °C, AlamarBlue, ATCC 25922, 3 independent measurements)	MIC S. epidermidis ([2]; CLSI broth microdilution, MH-II broth, 24 h 37 °C, AlamarBlue, ATCC 12228, 3 independent measurements)	MIC K. pneumoniae ([3]; CLSI broth microdilution, MH-II broth, 24 h 37 °C, AlamarBlue, ATCC 13883, 3 independent measurements)	MIC S. aureus ([4]; CLSI broth microdilution, MH-II broth, 10^6 CFU/mL, 24 h 37 °C, AlamarBlue, ATCC 25923, 3 independent measurements)	MIC E. faecalis ([5]; CLSI broth microdilution, MH-II broth, 24 h 37 °C, AlamarBlue, ATCC 29212, 3 independent measurements)	MIC P. aeruginosa ([6]; CLSI broth microdilution, MH-II broth, 24 h 37 °C, AlamarBlue, ATCC 27853, 3 independent measurements)	MIC A. baumannii ([7]; CLSI broth microdilution, MH-II broth, 24 h 37 °C, AlamarBlue, ATCC 19606, 3 independent measurements)
CC[C@H](C)[C@@H]1NC(=O)[C@H](CCCNC(=N)N)NC(=O)[C@](C)(NC(C)=O)CCCCCCC=CCCC[C@@](C)(C(=O)N[C@@H](CC(=O)O)C(=O)N[C@@H](Cc2ccccc2)C(=O)N[C@@H](CC(C)C)C(=O)N[C@@H](CCCNC(=N)N)C(N)=O)NC(=O)[C@H]([C@@H](C)CC)NC(=O)[C@H](CCCNC(=N)N)NC(=O)[C@H](CCC(N)=O)NC(=O)[C@H](C(C)C)NC1=O [KR-12 (K1, K8)] (Ac-[R8]RIVQRI[S5]DFLR-NH2; staple 1-8)	>256 µg/mL	> 256 µg/mL	> 256 µg/mL	> 256 µg/mL	> 256 µg/mL	> 256 µg/mL	> 256 µg/mL									
CC[C@H](C)[C@H](NC(=O)[C@H](CCCCN)NC(=O)[C@H](CCC(=O)O)NC(=O)[C@H](CCCCN)NC(=O)[C@H](CO)NC(=O)[C@H](CCCCN)NC(=O)[C@H](CCCNC(=N)N)NC(=O)[C@H](Cc1ccccc1)NC(=O)[C@H](Cc1ccccc1)NC(=O)[C@H](CC(=O)O)NC(=O)CNC(=O)[C@H](CC(C)C)NC(=O)[C@@H](N)CC(C)C)C(=O)NCC(=O)N[C@@H](CCCCN)C(=O)N[C@@H](CCC(=O)O)C(=O)N[C@@H](Cc1ccccc1)C(=O)N[C@@H](CCCCN)C(=O)N[C@@H](CCCNC(=N)N)C(=O)N[C@H](C(=O)N[C@H](C(=O)N[C@@H](CCC(N)=O)C(=O)N[C@@H](CCCNC(=N)N)C(=O)N[C@H](C(=O)N[C@@H](CCCCN)C(=O)N[C@@H](CC(=O)O)C(=O)N[C@@H](Cc1ccccc1)C(=O)N[C@@H](CC(C)C)C(=O)N[C@@H](CCCNC(=N)N)C(=O)N[C@@H](CC(N)=O)C(=O)N[C@@H](CC(C)C)C(=O)N[C@H](C(=O)N1CCC[C@H]1C(=O)N[C@@H](CCCNC(=N)N)C(=O)N[C@H](C(=O)N[C@@H](CCC(=O)O)C(=O)N[C@@H](CO)C(=O)O)[C@@H](C)O)C(C)C)[C@@H](C)CC)C(C)C)[C@@H](C)CC [LL-37]								> 50%	0.58 h							
CC[C@H](C)[C@@H]1NC(=O)[C@H](CCCNC(=N)N)NC(=O)[C@H](CCC(N)=O)NC(=O)[C@H](C(C)C)NC(=O)[C@H]([C@@H](C)CC)NC(=O)[C@](C)(NC(=O)[C@H](CCCCN)NC(C)=O)CCCCCCC=CCCC[C@@](C)(C(=O)N[C@@H](Cc2ccccc2)C(=O)N[C@@H](CC(C)C)C(=O)N[C@@H](CCCNC(=N)N)C(N)=O)NC(=O)[C@H](CCCCN)NC1=O [KR-12 (R2, D9)] (Ac-K[R8]IVQRIK[S5]FLR-NH2; staple 2-9)	128 µg/mL (≈ 78.3 µM)	64 µg/mL (≈ 39.2 µM)	128 µg/mL (≈ 78.3 µM)	256 µg/mL (≈ 157 µM)	256 µg/mL (≈ 157 µM)	256 µg/mL (≈ 157 µM)	128 µg/mL (≈ 78.3 µM)									
CC[C@H](C)[C@@H]1NC(=O)[C@H](CCCNC(=N)N)NC(=O)[C@H](CCC(N)=O)NC(=O)[C@H](C(C)C)NC(=O)[C@](C)(NC(=O)[C@H](CCCNC(=N)N)NC(=O)[C@H](CCCCN)NC(C)=O)CCCCCCC=CCCC[C@@](C)(C(=O)N[C@@H](CC(C)C)C(=O)N[C@@H](CCCNC(=N)N)C(N)=O)NC(=O)[C@H](CC(=O)O)NC(=O)[C@H](CCCCN)NC1=O [KR-12 (I3, F10)] (Ac-KR[R8]VQRIKD[S5]LR-NH2; staple 3-10)	64 µg/mL (≈ 38.9 µM)	256 µg/mL (≈ 156 µM)	64 µg/mL (≈ 38.9 µM)	64 µg/mL (≈ 38.9 µM)	256 µg/mL (≈ 156 µM)	128 µg/mL (≈ 77.8 µM)	32 µg/mL (≈ 19.5 µM)									
CC[C@H](C)[C@@H]1NC(=O)[C@H](CCCNC(=N)N)NC(=O)[C@H](CCC(N)=O)NC(=O)[C@](C)(NC(=O)[C@@H](NC(=O)[C@H](CCCNC(=N)N)NC(=O)[C@H](CCCCN)NC(C)=O)[C@@H](C)CC)CCCCCCC=CCCC[C@@](C)(C(=O)N[C@@H](CCCNC(=N)N)C(N)=O)NC(=O)[C@H](Cc2ccccc2)NC(=O)[C@H](CC(=O)O)NC(=O)[C@H](CCCCN)NC1=O [KR-12 (V4, L11)] (Ac-KRI[R8]QRIKDF[S5]R-NH2; staple 4-11)	128 µg/mL (≈ 75.6 µM)	256 µg/mL (≈ 151 µM)	128 µg/mL (≈ 75.6 µM)	128 µg/mL (≈ 75.6 µM)	> 256 µg/mL	128 µg/mL (≈ 75.6 µM)	128 µg/mL (≈ 75.6 µM)									
Ac-KRIVQRIKDFLR-NH2 [KR-12, reference compound]	128 µg/mL	> 256 µg/mL	> 256 µg/mL	32 µg/mL	128 µg/mL	256 µg/mL	> 256 µg/mL	> 50%	0.78 h							
polymyxin b [PMB, reference compound]										4 µg/mL	128 µg/mL	16 µg/mL	64 µg/mL	256 µg/mL	8 µg/mL	4 µg/mL
CC[C@H](C)[C@@H]1NC(=O)[C@H](CCCNC(=N)N)NC(=O)[C@](C)(NC(=O)[C@@H](NC(=O)[C@@H](NC(=O)[C@H](CCCNC(=N)N)NC(=O)[C@H](CCCCN)NC(C)=O)[C@@H](C)CC)C(C)C)CCCCCCC=CCCC[C@@](C)(C(N)=O)NC(=O)[C@H](CC(C)C)NC(=O)[C@H](Cc2ccccc2)NC(=O)[C@H](CC(=O)O)NC(=O)[C@H](CCCCN)NC1=O [KR-12 (Q5, R12)] (Ac-KRIV[R8]RIKDFL[S5]-NH2; staple 5-12)	32 µg/mL (≈ 19.7 µM)	> 256 µg/mL	64 µg/mL (≈ 39.5 µM)	64 µg/mL (≈ 39.5 µM)	256 µg/mL (≈ 158 µM)	64 µg/mL (≈ 39.5 µM)	64 µg/mL (≈ 39.5 µM)									
